Measurements reported in the supplement of paper PMC10307832.

Columns and labels:
Test in all cases: relative viability (nuclei count vs DMSO), 5 days (fraction); higher = more cells survive
NCI-H3122 = tested on: NCI-H3122
Summary of the method: (§1)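 Lung cancer cell lines in 1536-well plates got either a single drug or a fixed anchor-drug dose together with five library-drug doses (not always all listed) in √10 steps, by pin tool, on the day after seeding. Nuclei were counted after 5 days, and relative viability is the treated-to-vehicle ratio of nuclei counts. Values are medians of duplicate plates.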

HCC-44 = tested on: HCC-44
Summary of the method: as §1

NCI-H520 = tested on: NCI-H520
Summary of the method: as §1

NCI-H2347 = tested on: NCI-H2347
Summary of the method: as §1

PC-14 = tested on: PC-14
Summary of the method: as §1

NCI-H2085 = tested on: NCI-H2085
Summary of the method: as §1

NCI-H1734 = tested on: NCI-H1734
Summary of the method: as §1

NCI-H1993 = tested on: NCI-H1993
Summary of the method: as §1

201T = tested on: 201T
Summary of the method: as §1

EKVX = tested on: EKVX
Summary of the method: as §1

NCI-H2170 = tested on: NCI-H2170
Summary of the method: as §1

COR-L23 = tested on: COR-L23
Summary of the method: as §1

NCI-H1650 = tested on: NCI-H1650
Summary of the method: as §1

NCI-H2405 = tested on: NCI-H2405
Summary of the method: as §1

NCI-H1793 = tested on: NCI-H1793
Summary of the method: as §1

RERF-LC-KJ = tested on: RERF-LC-KJ
Summary of the method: as §1

LOU-NH91 = tested on: LOU-NH91
Summary of the method: as §1

EPLC-272H = tested on: EPLC-272H
Summary of the method: as §1

NCI-H2023 = tested on: NCI-H2023
Summary of the method: as §1

NCI-H441 = tested on: NCI-H441
Summary of the method: as §1

NCI-H647 = tested on: NCI-H647
Summary of the method: as §1

SW 900 = tested on: SW 900
Summary of the method: as §1

ABC-1 = tested on: ABC-1
Summary of the method: as §1

C[C@@H]1CN(CC(=O)Nc2ccc3c(c2)Cc2cccc(-c4cc(=O)cc(N5CCOCC5)o4)c2S3)C[C@H](C)O1 + CC(=O)c1c(C)c2cnc(Nc3ccc(N4CCNCC4)cn3)nc2n(C2CCCC2)c1=O [Palbociclib] (partner 0.5 µM)
relative viability (NCI-H3122; first compound 0.04 µM): 0.214 | relative viability (NCI-H3122; first compound 0.1265 µM): 0.201 | relative viability (NCI-H3122; first compound 0.4 µM): 0.176 | relative viability (NCI-H3122; first compound 4 µM): 0.161 | relative viability (HCC-44; first compound 0.04 µM): 0.917 | relative viability (HCC-44; first compound 0.1265 µM): 0.965 | relative viability (HCC-44; first compound 0.4 µM): 0.929 | relative viability (HCC-44; first compound 4 µM): 0.919 | relative viability (NCI-H520; first compound 0.04 µM): 0.219 | relative viability (NCI-H520; first compound 0.1265 µM): 0.259 | relative viability (NCI-H520; first compound 0.4 µM): 0.172 | relative viability (NCI-H520; first compound 4 µM): 0.215 | relative viability (NCI-H2347; first compound 0.04 µM): 0.377 | relative viability (NCI-H2347; first compound 0.1265 µM): 0.493 | relative viability (NCI-H2347; first compound 0.4 µM): 0.459 | relative viability (NCI-H2347; first compound 4 µM): 0.404 | relative viability (PC-14; first compound 0.04 µM): 0.529 | relative viability (PC-14; first compound 0.1265 µM): 0.506 | relative viability (PC-14; first compound 0.4 µM): 0.568 | relative viability (PC-14; first compound 4 µM): 0.423 | relative viability (NCI-H2085; first compound 0.04 µM): 0.476 | relative viability (NCI-H2085; first compound 0.1265 µM): 0.436 | relative viability (NCI-H2085; first compound 0.4 µM): 0.498 | relative viability (NCI-H2085; first compound 4 µM): 0.419 | relative viability (NCI-H1734; first compound 0.04 µM): 0.386 | relative viability (NCI-H1734; first compound 0.1265 µM): 0.354 | relative viability (NCI-H1734; first compound 0.4 µM): 0.308 | relative viability (NCI-H1734; first compound 4 µM): 0.433 | relative viability (NCI-H1993; first compound 0.04 µM): 0.645 | relative viability (NCI-H1993; first compound 0.1265 µM): 0.729 | relative viability (NCI-H1993; first compound 0.4 µM): 0.438 | relative viability (NCI-H1993; first compound 4 µM): 0.662 | relative viability (201T; first compound 0.04 µM): 0.345 | relative viability (201T; first compound 0.1265 µM): 0.35 | relative viability (201T; first compound 0.4 µM): 0.361 | relative viability (201T; first compound 4 µM): 0.336 | relative viability (EKVX; first compound 0.04 µM): 0.342 | relative viability (EKVX; first compound 0.1265 µM): 0.396 | relative viability (EKVX; first compound 0.4 µM): 0.308 | relative viability (EKVX; first compound 4 µM): 0.288 | relative viability (NCI-H2170; first compound 0.04 µM): 0.399 | relative viability (NCI-H2170; first compound 0.1265 µM): 0.436 | relative viability (NCI-H2170; first compound 0.4 µM): 0.416 | relative viability (NCI-H2170; first compound 4 µM): 0.36 | relative viability (COR-L23; first compound 0.04 µM): 0.294 | relative viability (COR-L23; first compound 0.1265 µM): 0.281 | relative viability (COR-L23; first compound 0.4 µM): 0.379 | relative viability (COR-L23; first compound 4 µM): 0.24 | relative viability (NCI-H1650; first compound 0.04 µM): 0.376 | relative viability (NCI-H1650; first compound 0.1265 µM): 0.397 | relative viability (NCI-H1650; first compound 0.4 µM): 0.285 | relative viability (NCI-H1650; first compound 4 µM): 0.262 | relative viability (NCI-H2405; first compound 0.04 µM): 0.564 | relative viability (NCI-H2405; first compound 0.1265 µM): 0.521 | relative viability (NCI-H2405; first compound 0.4 µM): 0.486 | relative viability (NCI-H2405; first compound 4 µM): 0.506 | relative viability (NCI-H1793; first compound 0.04 µM): 0.297 | relative viability (NCI-H1793; first compound 0.1265 µM): 0.323 | relative viability (NCI-H1793; first compound 0.4 µM): 0.296 | relative viability (NCI-H1793; first compound 4 µM): 0.2 | relative viability (RERF-LC-KJ; first compound 0.04 µM): 1.03 | relative viability (RERF-LC-KJ; first compound 0.1265 µM): 1.05 | relative viability (RERF-LC-KJ; first compound 0.4 µM): 1.17 | relative viability (RERF-LC-KJ; first compound 4 µM): 0.818 | relative viability (LOU-NH91; first compound 0.04 µM): 0.536 | relative viability (LOU-NH91; first compound 0.1265 µM): 0.481 | relative viability (LOU-NH91; first compound 0.4 µM): 0.55 | relative viability (LOU-NH91; first compound 4 µM): 0.509 | relative viability (EPLC-272H; first compound 0.04 µM): 0.38 | relative viability (EPLC-272H; first compound 0.1265 µM): 0.388 | relative viability (EPLC-272H; first compound 0.4 µM): 0.331 | relative viability (EPLC-272H; first compound 4 µM): 0.321 | relative viability (NCI-H2023; first compound 0.04 µM): 0.426 | relative viability (NCI-H2023; first compound 0.1265 µM): 0.336 | relative viability (NCI-H2023; first compound 0.4 µM): 0.371 | relative viability (NCI-H2023; first compound 4 µM): 0.288 | relative viability (NCI-H441; first compound 0.04 µM): 0.257 | relative viability (NCI-H441; first compound 0.1265 µM): 0.213 | relative viability (NCI-H441; first compound 0.4 µM): 0.223 | relative viability (NCI-H441; first compound 4 µM): 0.227 | relative viability (NCI-H647; first compound 0.04 µM): 0.376 | relative viability (NCI-H647; first compound 0.1265 µM): 0.336 | relative viability (NCI-H647; first compound 0.4 µM): 0.444 | relative viability (NCI-H647; first compound 4 µM): 0.273 | relative viability (SW 900; first compound 0.04 µM): 0.532 | relative viability (SW 900; first compound 0.1265 µM): 0.472 | relative viability (SW 900; first compound 0.4 µM): 0.564 | relative viability (SW 900; first compound 4 µM): 0.412 | relative viability (ABC-1; first compound 0.04 µM): 0.376 | relative viability (ABC-1; first compound 0.1265 µM): 0.673 | relative viability (ABC-1; first compound 0.4 µM): 0.634 | relative viability (ABC-1; first compound 4 µM): 0.811
